Literature values, collected in US20230382903A1, “SMALL MOLECULE MODULATORS OF GP130 SIGNALING PATHWAYS, TOPICAL FORMULATIONS AND METHOD OF USE THEREOF” (CarthroniX, Inc., priority 2020, published 2023).

Columns and labels:
gp130 = molecular target: T1, gp130 (Homo sapiens, UniProt P40189)
T1 sequence (P40189 23-918): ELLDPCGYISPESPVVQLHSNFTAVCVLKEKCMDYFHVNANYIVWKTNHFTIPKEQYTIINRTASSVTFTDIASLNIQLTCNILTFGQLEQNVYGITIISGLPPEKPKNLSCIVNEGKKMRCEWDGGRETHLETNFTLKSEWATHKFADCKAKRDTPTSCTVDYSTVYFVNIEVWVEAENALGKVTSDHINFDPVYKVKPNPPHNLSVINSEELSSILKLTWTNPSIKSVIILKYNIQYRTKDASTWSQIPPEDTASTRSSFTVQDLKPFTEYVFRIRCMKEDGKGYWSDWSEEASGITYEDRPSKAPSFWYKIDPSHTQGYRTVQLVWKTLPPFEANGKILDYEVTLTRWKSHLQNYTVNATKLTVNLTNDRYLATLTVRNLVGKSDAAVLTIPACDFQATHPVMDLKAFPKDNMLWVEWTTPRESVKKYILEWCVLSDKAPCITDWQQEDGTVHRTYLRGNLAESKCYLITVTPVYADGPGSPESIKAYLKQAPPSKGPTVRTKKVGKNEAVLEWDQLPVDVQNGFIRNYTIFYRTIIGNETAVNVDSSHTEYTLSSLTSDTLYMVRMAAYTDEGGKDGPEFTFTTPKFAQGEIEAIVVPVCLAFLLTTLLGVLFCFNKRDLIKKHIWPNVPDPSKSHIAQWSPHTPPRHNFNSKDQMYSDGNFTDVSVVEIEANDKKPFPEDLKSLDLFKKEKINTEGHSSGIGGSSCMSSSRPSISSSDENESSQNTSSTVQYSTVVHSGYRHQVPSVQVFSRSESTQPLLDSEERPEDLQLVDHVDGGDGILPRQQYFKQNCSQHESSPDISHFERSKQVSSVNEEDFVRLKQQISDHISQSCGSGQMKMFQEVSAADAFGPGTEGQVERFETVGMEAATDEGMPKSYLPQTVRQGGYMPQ

cartilage degeneration = conditions: rat model of OA

Brc1ccc(Nc2nc(-c3ccccc3)cs2)cc1 [RCGD 423]
interaction with gp130 (gp130; in vitro): interacts with the extracellular region of gp130
formation of gp130 homodimers (gp130; ligand-independent): promotes the formation of active, ligand-independent gp130 homodimers
prevention of cartilage degeneration (cartilage degeneration): remarkable ability to prevent cartilage degeneration
